# Laboratory results reported in ChEMBL document CHEMBL3045592, “Studies of O,O-dimethyl α-(2,4-dichlorophenoxyacetoxy)ethylphosphonate (HW02) as a new herbicide. 1. Synthesis and herbicidal activity of HW02 and analogues as novel inhibitors of pyruvate dehydrogenase complex” (J Agric Food Chem, 2011).
# Legend:
# Brassica juncea = test: Post-emergence herbicidal activity against Brassica juncea assessed as growth inhibition at 450 ai g/ha after 20 days by green house test; type: functional
# Digitaria sanguinalis [1] = test: Pre-emergence herbicidal activity against Digitaria sanguinalis (hairy crabgrass) assessed as growth inhibition at 150 ai g/ha after 20 days by green house test; type: functional
# Chenopodium album [2] = test: Post-emergence herbicidal activity against Chenopodium album assessed as growth inhibition at 150 ai g/ha after 20 days by green house test; type: functional
# Chenopodium album [3] = test: Pre-emergence herbicidal activity against Chenopodium album assessed as growth inhibition at 150 ai g/ha after 20 days by green house test; type: functional
# Chenopodium album [4] = test: Pre-emergence herbicidal activity against Chenopodium album assessed as growth inhibition at 75 ai g/ha after 20 days by green house test; type: functional
# [5] = molecular target: T1, Pyruvate dehydrogenase complex (Pisum sativum) (UniProt P52902+P52904); test: Inhibition of PDHc in Pisum sativum Zhongwan-2 (pea) shoot mitochondria assessed as decrease in rate of NADH formation using sodium pyruvate as substrate at 1 microg/g preincubated for 25 min before substrate addition measured after 1 min by spectrophotometric assay; type: protein-complex assay; conditions: Lathyrus oleraceus
# [6] = molecular target: T1, Pyruvate dehydrogenase complex (Pisum sativum); test: Inhibition of PDHc in Pisum sativum Zhongwan-2 (pea) shoot mitochondria assessed as decrease in rate of NADH formation using sodium pyruvate as substrate at 10 microg/g preincubated for 25 min before substrate addition measured after 1 min by spectrophotometric assay; type: protein-complex assay; conditions: Lathyrus oleraceus
# [7] = molecular target: T1, Pyruvate dehydrogenase complex (Pisum sativum); test: Inhibition of PDHc in Pisum sativum Zhongwan-2 (pea) shoot mitochondria assessed as decrease in rate of NADH formation using sodium pyruvate as substrate at 100 microg/g preincubated for 25 min before substrate addition measured after 1 min by spectrophotometric assay; type: protein-complex assay; conditions: Lathyrus oleraceus
# [8] = Inhibition of PDHc in Oryza sativa (rice) shoot mitochondria assessed as decrease in rate of NADH formation using sodium pyruvate as substrate preincubated for 25 min before substrate addition measured after 1 min by spectrophotometric assay
# [9] = molecular target: Pyruvate dehydrogenase complex (Vigna radiata var. radiata); test: Inhibition of PDHc in Vigna radiata var. radiata VC2778A shoot mitochondria assessed as decrease in rate of NADH formation using sodium pyruvate as substrate preincubated for 25 min before substrate addition measured after 1 min by spectrophotometric assay; type: protein-complex assay
# Echinochloa crus-galli [10] = test: Post-emergence herbicidal activity against Echinochloa crus-galli (barnyard grass) assessed as growth inhibition at 225 ai g/ha after 20 days by green house test; type: functional
# Medicago sativa [11] = test: Post-emergence herbicidal activity against Medicago sativa (alfalfa) assessed as growth inhibition at 450 ai g/ha after 20 days by green house test; type: functional
# Abutilon theophrasti [12] = test: Pre-emergence herbicidal activity against Abutilon theophrasti (velvetleaf) assessed as growth inhibition at 450 ai g/ha after 20 days by green house test; type: functional
# Cucumis sativus [13] = test: Herbicidal activity against Cucumis sativus Jin 4 (cucumber) assessed as inhibition of stem growth after 3 days; type: functional, organism-based; conditions: Jin 4, 72 h
# [14] = tested on: Brassica rapa subsp. oleifera; test: Post-emergence herbicidal activity against Brassica rapa subsp. oleifera Si Yue Man assessed as growth inhibition at 1500 ai g/ha after 20 days by green house test; type: functional
# Medicago sativa [15] = test: Pre-emergence herbicidal activity against Medicago sativa (alfalfa) assessed as growth inhibition at 1500 ai g/ha after 20 days by green house test; type: functional
# [16] = tested on: Brassica rapa subsp. oleifera; test: Pre-emergence herbicidal activity against Brassica rapa subsp. oleifera Si Yue Man assessed as growth inhibition at 1500 ai g/ha after 20 days by green house test; type: functional
# Echinochloa crus-galli [17] = test: Pre-emergence herbicidal activity against Echinochloa crus-galli (barnyard grass) assessed as growth inhibition at 1500 ai g/ha after 20 days by green house test; type: functional
# Cardamine hirsuta [18] = test: Post-emergence herbicidal activity against Cardamine hirsuta assessed as growth inhibition at 450 ai g/ha after 20 days by green house test; type: functional
# Portulaca oleracea = test: Post-emergence herbicidal activity against Portulaca oleracea assessed as growth inhibition at 75 ai g/ha after 20 days by green house test; type: functional
# [19] = Toxicity against Oryza sativa (rice) assessed as growth inhibition at 450 ai g/ha post-emergent application measured after 20 days by green house crop selectivity test; type: organism-based; conditions: in vivo, read-out: GI
# [20] = Toxicity against Zea mays Gao you 1 (maize) assessed as growth inhibition at 225 ai g/ha post-emergent application measured after 20 days by green house crop selectivity test; type: organism-based; conditions: Gao you 1, zea mays, in vivo, read-out: GI
# Abutilon theophrasti [21] = test: Post-emergence herbicidal activity against Abutilon theophrasti (velvetleaf) assessed as growth inhibition at 450 ai g/ha after 20 days by green house test; type: functional
# Cardamine hirsuta [22] = test: Post-emergence herbicidal activity against Cardamine hirsuta assessed as growth inhibition at 225 ai g/ha after 20 days by green house test; type: functional
# Cardamine hirsuta [23] = test: Post-emergence herbicidal activity against Cardamine hirsuta assessed as growth inhibition at 18.75 ai g/ha after 20 days by green house test; type: functional
# Xanthium strumarium = test: Post-emergence herbicidal activity against Xanthium strumarium (cocklebur) assessed as growth inhibition at 18.75 ai g/ha after 20 days by green house test; type: functional
# Cucumis sativus [24] = test: Herbicidal activity against Cucumis sativus Jin 4 (cucumber) assessed as inhibition of root growth after 3 days; type: functional, organism-based; conditions: Jin 4, 72 h
# Amaranthus retroflexus = test: Post-emergence herbicidal activity against Amaranthus retroflexus assessed as growth inhibition at 150 ai g/ha after 20 days by green house test; type: functional
# Eclipta prostrata [25] = test: Post-emergence herbicidal activity against Eclipta prostrata assessed as growth inhibition at 450 ai g/ha after 20 days by green house test; type: functional
# Eclipta prostrata [26] = test: Post-emergence herbicidal activity against Eclipta prostrata assessed as growth inhibition at 37.5 ai g/ha after 20 days by green house test; type: functional
# Setaria viridis [27] = test: Post-emergence herbicidal activity against Setaria viridis (green foxtail) assessed as growth inhibition at 450 ai g/ha after 20 days by green house test; type: functional
# Setaria viridis [28] = test: Post-emergence herbicidal activity against Setaria viridis (green foxtail) assessed as growth inhibition at 150 ai g/ha after 20 days by green house test; type: functional
# Setaria viridis [29] = test: Pre-emergence herbicidal activity against Setaria viridis (green foxtail) assessed as growth inhibition at 75 ai g/ha after 20 days by green house test; type: functional
# Digitaria sanguinalis [30] = test: Post-emergence herbicidal activity against Digitaria sanguinalis (hairy crabgrass) assessed as growth inhibition at 150 ai g/ha after 20 days by green house test; type: functional
# [31] = tested on: Brassica rapa subsp. oleifera; test: Post-emergence herbicidal activity against Brassica rapa subsp. oleifera Si Yue Man assessed as growth inhibition at 300 ai g/ha after 20 days by green house test; type: functional
# [32] = tested on: Brassica rapa subsp. oleifera; test: Post-emergence herbicidal activity against Brassica rapa subsp. oleifera Si Yue Man assessed as growth inhibition at 75 ai g/ha after 20 days by green house test; type: functional
# [33] = tested on: Brassica rapa subsp. oleifera; test: Post-emergence herbicidal activity against Brassica rapa subsp. oleifera Si Yue Man assessed as growth inhibition at 37.5 ai g/ha after 20 days by green house test; type: functional
# Pisum sativum = test: Post-emergence herbicidal activity against Pisum sativum Zhongwan-2 (pea) assessed as growth inhibition at 450 ai g/ha after 20 days by green house test; conditions: Lathyrus oleraceus
Compound,growth inhibition (GI) (Brassica juncea) [%],growth inhibition (GI) (Digitaria sanguinalis [1]) [%],growth inhibition (GI) (Chenopodium album [2]) [%],growth inhibition (GI) (Chenopodium album [3]) [%],growth inhibition (GI) (Chenopodium album [4]) [%],inhibition [5] [%],inhibition [6] [%],inhibition [7] [%],growth inhibition (GI) (Abutilon theophrasti [12]) [%],IC50 (Cucumis sativus [13]) [µM],growth inhibition (GI) [14] [%],growth inhibition (GI) (Medicago sativa [15]) [%],growth inhibition (GI) [16] [%],growth inhibition (GI) (Echinochloa crus-galli [17]) [%],inhibition at 480 h [19] [%],growth inhibition (GI) (Abutilon theophrasti [21]) [%],growth inhibition (GI) (Setaria viridis [27]) [%],growth inhibition (GI) (Setaria viridis [28]) [%],growth inhibition (GI) (Setaria viridis [29]) [%],growth inhibition (GI) (Digitaria sanguinalis [30]) [%],other results
COP(=O)(OC)C(C)OC(=O)COc1ccc(Cl)cc1Cl (centres undefined) [CLACYFOS],100,0,96,0,0,44.3,50.8,59,0,7.56,90,90,90,75,0,100,0,0,0,0,IC50 [8]: 867 µM; IC50 [9]: 12.8 µM; growth inhibition (GI) (Echinochloa crus-galli [10]): 10%; growth inhibition (GI) (Medicago sativa [11]): 100%; growth inhibition (GI) (Cardamine hirsuta [18]): 100%; growth inhibition (GI) (Portulaca oleracea): 75%; inhibition at 480 h [20]: 0%; growth inhibition (GI) (Cardamine hirsuta [22]): 95%; growth inhibition (GI) (Cardamine hirsuta [23]): 75%; growth inhibition (GI) (Xanthium strumarium): 50%; IC50 (Cucumis sativus [24]): 0.0025 µM; growth inhibition (GI) (Amaranthus retroflexus): 96%; growth inhibition (GI) (Eclipta prostrata [25]): 100%; growth inhibition (GI) (Eclipta prostrata [26]): 72%; growth inhibition (GI) [31]: 100%; growth inhibition (GI) [32]: 92.5%; growth inhibition (GI) [33]: 90%; growth inhibition (GI) (Pisum sativum): 97.5%
COP(=O)(COC(=O)COc1cccc(C(F)(F)F)c1)OC,82.5,0,42.5,0,0,22.9,31.1,49.2,0,–,90,75,75,50,32.5,87.5,0,0,0,0,growth inhibition (GI) (Pisum sativum): 10%
"O=C(O)COc1ccc(Cl)cc1Cl [2,4-DICHLOROPHENOXYACETIC ACID]",100,10,92.5,0,0,12.9,18.5,27.8,0,10.1,90,90,90,75,37.5,100,0,0,0,0,IC50 (Cucumis sativus [24]): 0.228 µM
